Data taken from patent EP4722212A1, “NOVEL COMPOUND FOR INHIBITING PROTEIN KINASES AND PHARMACEUTICAL COMPOSITION COMPRISING SAME” (Magicbullettherapeutics Co., Ltd., priority 2023, dated 2024).
Where two headings read alike, the source gives them in different places.

Assays:
Experiment in all cases: Kinase panel
Format in all cases: biochemical
AKT3 = AKT3 (Homo sapiens, UniProt Q9Y243); details: AKT3, 1 µM; read-out: residual enzyme activity
Outline: (§1)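 Biochemical full-panel kinase assay with compounds tested at a single concentration of 1 µM. Values are residual enzyme activity. Kinases were flagged when residual activity was 40% or less, i.e. inhibition of 60% or more.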

BMX/ETK = BMX/ETK (Homo sapiens, UniProt P51813); details: read-out: residual enzyme activity
Chain of BMX/ETK (P51813 whole entry): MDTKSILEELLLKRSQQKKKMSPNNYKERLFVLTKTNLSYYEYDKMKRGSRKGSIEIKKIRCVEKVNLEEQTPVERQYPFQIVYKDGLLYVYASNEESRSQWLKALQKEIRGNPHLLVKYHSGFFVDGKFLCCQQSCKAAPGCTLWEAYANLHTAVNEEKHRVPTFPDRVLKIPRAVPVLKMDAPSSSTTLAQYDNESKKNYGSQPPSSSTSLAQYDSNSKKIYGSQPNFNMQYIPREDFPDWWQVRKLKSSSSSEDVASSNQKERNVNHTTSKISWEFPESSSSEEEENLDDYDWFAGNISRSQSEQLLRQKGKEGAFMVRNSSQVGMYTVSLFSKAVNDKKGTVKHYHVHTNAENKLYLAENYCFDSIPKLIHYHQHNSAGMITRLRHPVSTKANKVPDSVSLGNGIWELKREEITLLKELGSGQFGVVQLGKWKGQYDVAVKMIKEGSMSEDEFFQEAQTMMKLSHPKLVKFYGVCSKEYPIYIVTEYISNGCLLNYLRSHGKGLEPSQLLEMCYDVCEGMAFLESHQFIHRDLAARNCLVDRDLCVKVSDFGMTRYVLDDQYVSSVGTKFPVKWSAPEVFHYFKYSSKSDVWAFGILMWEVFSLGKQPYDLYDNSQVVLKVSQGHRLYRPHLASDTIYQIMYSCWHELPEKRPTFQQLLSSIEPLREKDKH
Outline: as §1

C-MER = C-MER (Homo sapiens, UniProt Q12866); details: read-out: residual enzyme activity
Outline: as §1

CDK7/CYCLIN H = CDK7/CYCLIN H (Homo sapiens, UniProt P50613); details: read-out: residual enzyme activity
Chain of CDK7/CYCLIN H (P50613 whole entry, species assumed): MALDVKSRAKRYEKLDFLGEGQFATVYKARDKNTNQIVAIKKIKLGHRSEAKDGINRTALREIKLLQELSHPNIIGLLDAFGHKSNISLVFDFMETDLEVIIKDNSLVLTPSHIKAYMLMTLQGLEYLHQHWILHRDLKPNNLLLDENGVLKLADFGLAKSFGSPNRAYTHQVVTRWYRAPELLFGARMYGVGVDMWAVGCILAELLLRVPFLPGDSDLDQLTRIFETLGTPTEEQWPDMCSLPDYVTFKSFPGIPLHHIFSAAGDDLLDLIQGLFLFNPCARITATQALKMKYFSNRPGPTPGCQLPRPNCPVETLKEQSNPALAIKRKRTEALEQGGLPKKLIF
Chain of CDK7/CYCLIN H (P51946 whole entry partner, species assumed): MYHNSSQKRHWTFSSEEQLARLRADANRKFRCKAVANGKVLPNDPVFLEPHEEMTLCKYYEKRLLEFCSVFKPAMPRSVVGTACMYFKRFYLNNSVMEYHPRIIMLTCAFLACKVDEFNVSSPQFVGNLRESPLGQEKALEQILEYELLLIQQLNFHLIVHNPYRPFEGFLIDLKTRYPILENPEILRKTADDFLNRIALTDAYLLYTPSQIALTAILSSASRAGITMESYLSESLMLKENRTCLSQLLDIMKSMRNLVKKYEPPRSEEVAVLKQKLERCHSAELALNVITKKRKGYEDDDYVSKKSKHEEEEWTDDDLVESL
Outline: as §1

FLT3 = FLT3 (Homo sapiens, UniProt P36888); details: FLT3, 1 µM; read-out: residual enzyme activity
Outline: as §1

GCK/MAP4K2 = GCK/MAP4K2 (Homo sapiens, UniProt Q12851); details: GCK/MAP4K2, 1 µM; read-out: residual enzyme activity
Outline: as §1

GRK5 = GRK5 (Homo sapiens, UniProt P34947); details: GRK5, 1 µM; read-out: residual enzyme activity
Outline: as §1

HIPK4 = HIPK4 (Homo sapiens, UniProt Q8NE63); details: HIPK4, 1 µM; read-out: residual enzyme activity
Outline: as §1

IRR/INSRR = IRR/INSRR (Homo sapiens, UniProt P14616); details: read-out: residual enzyme activity
Outline: as §1

JAK2 = JAK2 (Homo sapiens, UniProt O60674); details: JAK2, 1 µM; read-out: residual enzyme activity
Outline: as §1

MAPKAPK2 = MAPKAPK2 (Homo sapiens, UniProt P49137); details: MAPKAPK2, 1 µM; read-out: residual enzyme activity
Outline: as §1

MAST3 = MAST3 (Homo sapiens, UniProt O60307); details: MAST3, 1 µM; read-out: residual enzyme activity
Chain of MAST3 (O60307 whole entry, species assumed): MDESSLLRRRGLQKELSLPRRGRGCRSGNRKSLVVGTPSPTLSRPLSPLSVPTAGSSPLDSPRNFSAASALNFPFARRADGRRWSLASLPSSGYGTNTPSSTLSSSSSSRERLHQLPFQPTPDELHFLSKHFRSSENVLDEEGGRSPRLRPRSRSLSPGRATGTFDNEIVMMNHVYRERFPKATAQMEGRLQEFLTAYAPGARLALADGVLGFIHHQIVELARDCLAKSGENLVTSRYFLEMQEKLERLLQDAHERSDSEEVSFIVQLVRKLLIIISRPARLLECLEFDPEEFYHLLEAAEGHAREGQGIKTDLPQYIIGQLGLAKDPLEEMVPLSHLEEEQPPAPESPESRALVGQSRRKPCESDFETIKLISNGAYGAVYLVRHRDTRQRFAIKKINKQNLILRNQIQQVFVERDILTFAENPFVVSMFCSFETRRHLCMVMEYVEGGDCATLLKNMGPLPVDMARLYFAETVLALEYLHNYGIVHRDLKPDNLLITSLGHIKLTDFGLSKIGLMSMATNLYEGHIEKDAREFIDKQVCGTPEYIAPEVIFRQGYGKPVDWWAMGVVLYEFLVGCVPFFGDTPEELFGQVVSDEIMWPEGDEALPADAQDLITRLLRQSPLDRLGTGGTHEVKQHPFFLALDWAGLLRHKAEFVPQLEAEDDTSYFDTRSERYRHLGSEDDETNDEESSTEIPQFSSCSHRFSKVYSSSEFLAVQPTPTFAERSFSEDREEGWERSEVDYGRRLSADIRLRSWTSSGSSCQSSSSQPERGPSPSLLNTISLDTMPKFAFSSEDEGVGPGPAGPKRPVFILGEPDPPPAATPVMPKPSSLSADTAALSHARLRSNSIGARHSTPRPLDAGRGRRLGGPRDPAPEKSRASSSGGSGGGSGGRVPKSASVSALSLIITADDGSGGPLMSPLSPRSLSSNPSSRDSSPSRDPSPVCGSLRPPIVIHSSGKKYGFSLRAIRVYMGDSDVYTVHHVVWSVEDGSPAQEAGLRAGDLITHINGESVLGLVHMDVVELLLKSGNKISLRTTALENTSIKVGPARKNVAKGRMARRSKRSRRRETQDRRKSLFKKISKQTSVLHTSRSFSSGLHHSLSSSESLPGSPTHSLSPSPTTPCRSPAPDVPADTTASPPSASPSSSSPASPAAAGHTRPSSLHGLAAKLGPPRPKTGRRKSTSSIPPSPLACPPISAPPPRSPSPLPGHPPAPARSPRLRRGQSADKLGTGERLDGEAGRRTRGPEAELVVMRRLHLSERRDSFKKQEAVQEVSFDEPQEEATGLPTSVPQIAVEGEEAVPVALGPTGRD
Outline: as §1

MEK1 = MEK1 (Homo sapiens, UniProt Q02750); details: MEK1, 1 µM; read-out: residual enzyme activity
Outline: as §1

MEKK6 = MEKK6 (Homo sapiens, UniProt O95382); details: MEKK6, 1 µM; read-out: residual enzyme activity
Outline: as §1

MNK1 = MNK1 (Homo sapiens, UniProt Q9BUB5); details: MNK1, 1 µM; read-out: residual enzyme activity
Chain of MNK1 (Q9BUB5 whole entry, species assumed): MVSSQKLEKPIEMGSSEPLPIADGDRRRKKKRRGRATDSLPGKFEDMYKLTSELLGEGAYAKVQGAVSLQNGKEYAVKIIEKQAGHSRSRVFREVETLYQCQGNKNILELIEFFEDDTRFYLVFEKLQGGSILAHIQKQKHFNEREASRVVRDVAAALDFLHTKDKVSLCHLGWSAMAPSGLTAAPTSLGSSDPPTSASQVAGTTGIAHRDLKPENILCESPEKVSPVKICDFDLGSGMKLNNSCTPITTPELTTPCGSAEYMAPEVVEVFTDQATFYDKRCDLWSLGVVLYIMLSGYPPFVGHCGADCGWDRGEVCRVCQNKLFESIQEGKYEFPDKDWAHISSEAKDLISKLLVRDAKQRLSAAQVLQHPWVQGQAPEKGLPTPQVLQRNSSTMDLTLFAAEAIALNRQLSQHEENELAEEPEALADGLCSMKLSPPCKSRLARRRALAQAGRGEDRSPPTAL
Outline: as §1

MNK2 = MNK2 (Homo sapiens, UniProt Q9HBH9); details: MNK2, 1 µM; read-out: residual enzyme activity
Outline: as §1

MST3/STK24 = MST3/STK24 (Homo sapiens, UniProt Q9Y6E0); details: MST3/STK24, 1 µM; read-out: residual enzyme activity
Chain of MST3/STK24 (Q9Y6E0 whole entry): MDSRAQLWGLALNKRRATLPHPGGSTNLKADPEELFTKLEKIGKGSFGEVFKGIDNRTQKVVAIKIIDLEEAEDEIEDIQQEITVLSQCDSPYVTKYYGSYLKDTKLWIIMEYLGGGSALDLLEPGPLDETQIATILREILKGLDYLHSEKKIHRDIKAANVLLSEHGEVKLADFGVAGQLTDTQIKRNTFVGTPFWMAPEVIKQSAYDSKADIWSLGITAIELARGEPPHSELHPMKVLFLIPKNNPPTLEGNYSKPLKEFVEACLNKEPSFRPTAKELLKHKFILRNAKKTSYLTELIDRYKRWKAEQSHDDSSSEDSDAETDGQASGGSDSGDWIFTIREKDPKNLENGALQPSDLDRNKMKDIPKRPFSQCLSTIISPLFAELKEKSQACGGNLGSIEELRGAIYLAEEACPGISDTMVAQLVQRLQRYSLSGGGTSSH
Outline: as §1

NEK6 = NEK6 (Homo sapiens, UniProt Q9HC98); details: NEK6, 1 µM; read-out: residual enzyme activity
Outline: as §1

PAK2 = PAK2 (Homo sapiens, UniProt Q13177); details: PAK2, 1 µM; read-out: residual enzyme activity
Outline: as §1

PAK3 = PAK3 (Homo sapiens, UniProt O75914); details: PAK3, 1 µM; read-out: residual enzyme activity
Chain of PAK3 (O75914 whole entry, species assumed): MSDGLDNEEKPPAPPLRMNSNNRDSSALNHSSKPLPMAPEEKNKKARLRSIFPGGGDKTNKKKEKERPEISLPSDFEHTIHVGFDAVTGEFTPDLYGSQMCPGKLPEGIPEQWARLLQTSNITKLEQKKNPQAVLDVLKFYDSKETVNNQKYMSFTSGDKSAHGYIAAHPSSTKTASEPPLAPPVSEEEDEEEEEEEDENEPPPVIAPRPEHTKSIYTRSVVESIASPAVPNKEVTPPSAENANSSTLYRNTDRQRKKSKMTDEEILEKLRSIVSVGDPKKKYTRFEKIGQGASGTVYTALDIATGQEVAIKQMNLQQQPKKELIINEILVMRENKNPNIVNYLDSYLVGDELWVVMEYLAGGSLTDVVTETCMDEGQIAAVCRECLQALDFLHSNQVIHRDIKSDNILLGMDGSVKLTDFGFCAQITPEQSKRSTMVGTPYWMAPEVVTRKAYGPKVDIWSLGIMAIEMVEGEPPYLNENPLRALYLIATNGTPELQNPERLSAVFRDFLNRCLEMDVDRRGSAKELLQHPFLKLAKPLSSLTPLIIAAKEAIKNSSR
Outline: as §1

PAK6 = PAK6 (Homo sapiens, UniProt Q9NQU5); details: PAK6, 1 µM; read-out: residual enzyme activity
Outline: as §1

PKA = PKA (Homo sapiens, UniProt P17612); details: read-out: residual enzyme activity
Outline: as §1

PKCMU/PRKD1 = PKCMU/PRKD1 (Homo sapiens, UniProt Q15139); details: PKCmu/PRKD1, 1 µM; read-out: residual enzyme activity
Outline: as §1

PKD2/PRKD2 = PKD2/PRKD2 (Homo sapiens, UniProt Q9BZL6); details: PKD2/PRKD2, 1 µM; read-out: residual enzyme activity
Chain of PKD2/PRKD2 (Q9BZL6 whole entry): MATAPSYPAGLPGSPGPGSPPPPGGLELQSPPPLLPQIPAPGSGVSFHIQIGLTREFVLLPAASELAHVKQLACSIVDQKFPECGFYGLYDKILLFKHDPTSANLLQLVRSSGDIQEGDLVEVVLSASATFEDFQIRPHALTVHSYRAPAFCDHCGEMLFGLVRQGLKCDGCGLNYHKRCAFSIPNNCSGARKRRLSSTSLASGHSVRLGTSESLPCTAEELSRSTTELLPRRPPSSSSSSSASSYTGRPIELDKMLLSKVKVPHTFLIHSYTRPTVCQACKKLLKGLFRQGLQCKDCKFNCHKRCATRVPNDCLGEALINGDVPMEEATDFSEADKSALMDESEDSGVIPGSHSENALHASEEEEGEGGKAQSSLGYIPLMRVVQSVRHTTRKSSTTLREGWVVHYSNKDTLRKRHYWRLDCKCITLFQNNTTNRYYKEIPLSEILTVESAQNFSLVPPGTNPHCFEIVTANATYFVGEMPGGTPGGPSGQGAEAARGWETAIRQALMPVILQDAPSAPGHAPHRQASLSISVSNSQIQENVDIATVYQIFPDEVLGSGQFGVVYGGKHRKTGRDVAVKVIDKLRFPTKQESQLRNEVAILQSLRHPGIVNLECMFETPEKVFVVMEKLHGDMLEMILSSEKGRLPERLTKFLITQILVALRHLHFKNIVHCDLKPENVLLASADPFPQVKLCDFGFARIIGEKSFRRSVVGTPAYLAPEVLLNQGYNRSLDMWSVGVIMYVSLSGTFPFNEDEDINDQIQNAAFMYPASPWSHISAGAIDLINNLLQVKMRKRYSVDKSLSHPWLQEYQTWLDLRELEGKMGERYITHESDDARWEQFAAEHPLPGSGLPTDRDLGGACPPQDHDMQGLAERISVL
Outline: as §1

RIPK2 = RIPK2 (Homo sapiens, UniProt O43353); details: RIPK2, 1 µM; read-out: residual enzyme activity
Outline: as §1

ROCK1 = ROCK1 (Homo sapiens, UniProt Q13464); details: ROCK1, 1 µM; read-out: residual enzyme activity
Outline: as §1

RON/MSTIR = RON/MSTIR (Homo sapiens, UniProt Q04912); details: read-out: residual enzyme activity
Outline: as §1

SNRK = SNRK (Homo sapiens, UniProt Q9NRH2); details: read-out: residual enzyme activity
Outline: as §1

SRPK1 = SRPK1 (Homo sapiens, UniProt Q96SB4); details: SRPK1, 1 µM; read-out: residual enzyme activity
Outline: as §1

SSTK/TSSK6 = SSTK/TSSK6 (Homo sapiens, UniProt Q9BXA6); details: SSTK/TSSK6, 1 µM; read-out: residual enzyme activity
Outline: as §1

TESK1 = TESK1 (Homo sapiens, UniProt Q15569); details: TESK1, 1 µM; read-out: residual enzyme activity
Outline: as §1

WNK1 = WNK1 (Homo sapiens, UniProt Q9H4A3); details: WNK1, 1 µM; read-out: residual enzyme activity
Outline: as §1

ZIPK/DAPK3 = ZIPK/DAPK3 (Homo sapiens, UniProt O43293); details: ZIPK/DAPK3, 1 µM; read-out: residual enzyme activity
Outline: as §1

| SMILES | remaining activity at 1 µM (AKT3) [%] | remaining activity at 1 µM (BMX/ETK) [%] | remaining activity at 1 µM (CDK7/CYCLIN H) [%] | remaining activity at 1 µM (FLT3) [%] | remaining activity at 1 µM (GCK/MAP4K2) [%] | remaining activity at 1 µM (GRK5) [%] | remaining activity at 1 µM (HIPK4) [%] | remaining activity at 1 µM (IRR/INSRR) [%] | remaining activity at 1 µM (JAK2) [%] | remaining activity at 1 µM (MAPKAPK2) [%] | remaining activity at 1 µM (MAST3) [%] | remaining activity at 1 µM (MEK1) [%] | remaining activity at 1 µM (MEKK6) [%] | remaining activity at 1 µM (MNK1) [%] | remaining activity at 1 µM (MNK2) [%] | remaining activity at 1 µM (MST3/STK24) [%] | remaining activity at 1 µM (NEK6) [%] | remaining activity at 1 µM (PAK2) [%] | remaining activity at 1 µM (PAK3) [%] | remaining activity at 1 µM (PAK6) [%] | other results |
| --- | --- | --- | --- | --- | --- | --- | --- | --- | --- | --- | --- | --- | --- | --- | --- | --- | --- | --- | --- | --- | --- |
| Cc1cn(-c2cc(C(=O)Nc3ccc(C)c(N4Cc5cnc(NC6CC6)nc5C5(CC5)C4=O)c3)cc(C(F)(F)F)c2)cn1 [Compound 8, N-(3-(2'-(cyclopropylamino)-7'-oxo-5'H-spiro[cyclopropane-1,8'-pyrido[4,3-d]pyrimidine]-6'(7'H)-yl)-4-methylphenyl)-3-(4-methyl-1H-imidazol-1-yl)-5-(trifluoromethyl)benzamide] | > 40 | ≤ 40 | > 40 | ≤ 40 | ≤ 40 | > 40 | > 40 | > 40 | ≤ 40 | > 40 | > 40 | > 40 | > 40 | > 40 | > 40 | > 40 | > 40 | > 40 | > 40 | > 40 | remaining activity at 1 µM (C-MER; C-MER): > 40%; remaining activity at 1 µM (PKA): > 40%; remaining activity at 1 µM (PKCMU/PRKD1): > 40%; remaining activity at 1 µM (PKD2/PRKD2): > 40%; remaining activity at 1 µM (RIPK2): > 40%; remaining activity at 1 µM (ROCK1): > 40%; remaining activity at 1 µM (RON/MSTIR): > 40%; remaining activity at 1 µM (SNRK): > 40%; remaining activity at 1 µM (SRPK1): > 40%; remaining activity at 1 µM (SSTK/TSSK6): > 40%; remaining activity at 1 µM (TESK1): ≤ 40%; remaining activity at 1 µM (WNK1): > 40%; remaining activity at 1 µM (ZIPK/DAPK3): > 40% |
| Cc1ccc(Nc2ncc3c(n2)C2(CC2)C(=O)N(c2cc(NC(=O)c4cccc(C(F)(F)F)c4)ccc2C)C3)cn1 [Compound 51, N-(4-methyl-3-(2'-((6-methylpyridin-3-yl)amino)-7'-oxo-5'H-spiro[cyclopropane-1,8'-pyrido[4,3-d]pyrimidine]-6'(7'H)-yl)phenyl)-3-(trifluoromethyl)benzamide] | > 40 | ≤ 40 | > 40 | ≤ 40 | ≤ 40 | > 40 | ≤ 40 | > 40 | ≤ 40 | > 40 | > 40 | > 40 | > 40 | > 40 | > 40 | > 40 | > 40 | > 40 | > 40 | > 40 | remaining activity at 1 µM (C-MER; c-MER): > 40%; remaining activity at 1 µM (PKA): > 40%; remaining activity at 1 µM (PKCMU/PRKD1): > 40%; remaining activity at 1 µM (PKD2/PRKD2): > 40%; remaining activity at 1 µM (RIPK2): > 40%; remaining activity at 1 µM (ROCK1): > 40%; remaining activity at 1 µM (RON/MSTIR): > 40%; remaining activity at 1 µM (SNRK): > 40%; remaining activity at 1 µM (SRPK1): > 40%; remaining activity at 1 µM (SSTK/TSSK6): > 40%; remaining activity at 1 µM (TESK1): ≤ 40%; remaining activity at 1 µM (WNK1): > 40%; remaining activity at 1 µM (ZIPK/DAPK3): > 40% |
